In US8802678B2, “Carbonylated (aza) cyclohexanes as dopamine D3 receptor ligands” (Bioprojet, priority 2006, dated 2014) one finds melting point data, which are given here for 44 compounds.

Each structure is given as a SMILES string.

In turn, `CC(=O)CN1CCC(CCN2CCN(c3ccc(F)c(Cl)c3F)CC2)CC1` [Example 623, 1-(4-{2-[4-(3-Chloro-2,4-difluorophenyl)piperazin-1-yl]ethyl}piperidin-1-yl)propan-2-one] displayed a melting point of 82 °C.

`CC(=O)CN1CCC(CCN2CCN(c3cc(C(F)(F)F)nc(C(C)(C)C)n3)CC2)CC1.Cl.Cl.Cl` registered a melting point of 287 °C.

`CC(=O)CN1CCC(CCN2CCN(c3cccc(Cl)c3C)CC2)CC1.Cl.Cl` returned a melting point of 320 to 325 °C.

Consider `N#CCC(=O)N[C@H]1CC[C@H](CCN2CCN(c3cc(C(F)(F)F)cc(C(F)(F)F)c3)CC2)CC1` [Example 107, N-(4-{2-[4-(3,5-Bistrifluoro-methylphenyl)piperazin-1-yl]ethyl}cyclohexyl)-2-cyanoacetamide], for which the melting point amounted to 196 °C.

In the case of `CNC(=O)C[C@H]1CC[C@H](CCN2CCN(c3ccccc3F)CC2)CC1` [Example 300, 2-(4-{2-[4-(2-Fluorophenyl)-piperazin-1-yl]ethyl}cyclohexyl)-N-methylacetamide], the melting point lay in the range of 165 to 166 °C.

Compound `CCOc1cccc(N2CCN(CC[C@H]3CC[C@H](NC(=O)CC#N)CC3)CC2)c1` [Example 170, 2-Cyano-N-(4-{2-[4-(3-ethoxyphenyl)piperazin-1-yl]ethyl}cyclohexyl)acetamide] displayed a melting point of 157 to 159 °C.

In turn, `O=C(CC1C=CCC1)N[C@H]1CC[C@H](CCN2CCN(c3cccc(C(F)(F)F)c3)CC2)CC1` (some centres unmarked) [Example 373, 2-Cyclopent-2-enyl-N-(4-{2-[4-(3-trifluoromethylphenyl)piperazin-1-yl]ethyl}cyclohexyl)acetamide] displayed a melting point of 154 °C.

On to `CC(=O)NCC(=O)N[C@H]1CC[C@H](CCN2CCN(c3cccc(F)c3F)CC2)CC1` [Example 145, 2-Acetylamino-N-(4-{2-[4-(2,3-difluorophenyl)piperazin-1-yl]ethyl}cyclohexyl)acetamide], for which the melting point was 218 °C.

For the compound `Cc1ccc(F)c(N2CCN(CC[C@H]3CC[C@H](NC(=O)C4=CCCC4)CC3)CC2)c1` [Example 534, Cyclopent-1-enecarboxylic acid (4-{2-[4-(2-fluoro-5-methylphenyl)piperazin-1-yl]ethyl}cyclohexyl) amide], the melting point worked out at 174 °C.

`N#CCC(=O)N[C@H]1CC[C@H](CCN2CCN(c3csc4cc(C(F)(F)F)ccc34)CC2)CC1` [Example 173, 2-Cyano-N-(4-{2-[4-(6-trifluoromethylbenzo[b]thiophen-3-yl)piperazin-1-yl]ethyl}cyclohexyl)acetamide]: the melting point came to 216 °C.

Take `N#CCCCC(=O)N[C@H]1CC[C@H](CCN2CCN(c3ccc(F)c(Cl)c3)CC2)CC1` [Example 598, N-(4-{2-[4-(3-Chloro-4-fluorophenyl)piperazin-1-yl]ethyl}cyclohexyl)-4-cyanobutanamide]: the melting point was found to be 142 °C.

`Cl.N#CCCC(=O)N1CCC(CCN2CC=C(c3cc(C(F)(F)F)ccc3F)CC2)CC1` showed a melting point of 150 °C.

Turning to `CC(=O)CN1CCC(CCN2CCN(c3cc(C#N)cc(C(F)(F)F)c3)CC2)CC1.Cl.Cl`, the melting point amounted to 280 °C.

For `COCCNC(=O)C[C@H]1CC[C@H](CCN2CCN(c3cccc(C(F)(F)F)c3)CC2)CC1.Cl`, the melting point came out at 143 °C.

Regarding `N#CCCCC(=O)N[C@H]1CC[C@H](CCN2CCN(c3cccc(F)c3)CC2)CC1` [Example 395, 4-Cyano-N-(4-{2-[4-(3-fluorophenyl)piperazin-1-yl]ethyl}cyclohexyl)butanamide], the melting point amounted to 170 °C.

Compound `CC(=O)CN1CCC(CCN2CCN(c3cc(F)ccc3C)CC2)CC1.Cl.Cl` yielded a melting point of 281 °C.

Take `CC(=O)CN1CCC(CCN2CCN(c3cccc(Oc4ccccc4)c3)CC2)CC1.Cl.Cl`: the melting point is 241 °C.

`N#CCC(=O)N[C@H]1CC[C@H](CCN2CCN(c3ccc(Cl)cc3F)CC2)CC1` [Example 359, N-(4-{2-[4-(4-Chloro-2-fluorophenyl)piperazin-1-yl]ethyl}cyclohexyl)-2-cyanoacetamide] registered a melting point of 218 °C.

On to `N#CCCCC(=O)N[C@H]1CC[C@H](CCN2CCN(c3ccc(Cl)c(C(F)(F)F)c3)CC2)CC1` [Example 756, N-(4-{2-[4-(4-Chloro-3-trifluoromethylphenyl)piperazin-1-yl]ethyl}cyclohexyl)-4-cyanobutanamide], for which the melting point was 126 °C.

Compound `N#CCC(=O)N[C@H]1CC[C@H](CCN2CCN(c3cccc(Cl)c3)CC2)CC1` [Example 156, N-(4-{2-[4-(3-Chlorophenyl)-piperazin-1-yl]ethyl}cyclohexyl)-2-cyanoacetamide] gave a melting point of 186 to 187 °C.

In turn, `O=C(N[C@H]1CC[C@H](CCN2CCN(c3ccc(F)c(F)c3F)CC2)CC1)C1=CCCC1` [Example 543] registered a melting point of 213 °C.

The compound `COCCCC(=O)N[C@H]1CC[C@H](CCN2CCN(c3cccc(C(F)(F)F)c3)CC2)CC1` [Example 64, 4-Methoxy-N-(4-{2-[4-(3-trifluoromethylphenyl)piperazin-1-yl]ethyl}cyclohexyl)butanamide] displayed a melting point of 149 °C.

The compound `CS(=O)(=O)CC(=O)N[C@H]1CC[C@H](CCN2CCN(c3cc(C(F)(F)F)ccc3F)CC2)CC1` [Example 706, N-(4-{2-[4-(2-Fluoro-5-trifluoromethylphenyl)piperazin-1-yl]ethyl}cyclohexyl)-2-methanesulfonylacetamide] yielded a melting point of 192 °C.

Turning to `CC(=O)CN1CCC(CCN2CCN(c3cccc(C#N)c3)CC2)CC1.Cl.Cl`, the melting point was found to be 250 °C.

As for `Cc1cc(Cl)cc(N2CCN(CC[C@H]3CC[C@H](NC(=O)CCCC#N)CC3)CC2)c1` [Example 438, N-(4-{2-[4-(3-Chloro-5-methylphenyl)piperazin-1-yl]ethyl}cyclohexyl)-4-cyanobutanamide], the melting point amounted to 165 °C.

Take `COCCCC(=O)N[C@H]1CC[C@H](CCN2CCC(c3cccc(C(F)(F)F)c3)CC2)CC1` [Example 84, 4-Methoxy-N-(4-{2-[4-(3-trifluoromethylphenyl)piperidin-1-yl]ethyl}cyclohexyl)butanamide]: the melting point is 134 °C.

The compound `Cc1ccc(N2CCN(CC[C@H]3CC[C@H](NC(=O)CCCC#N)CC3)CC2)cc1Cl` [Example 381, N-(4-{2-[4-(3-Chloro-4-methylphenyl)piperazin-1-yl]ethyl}cyclohexyl)-4-cyanobutanamide] showed a melting point of 168 °C.

On to `N#CCCCC(=O)N[C@H]1CC[C@H](CCN2CCN(c3cc(F)c(F)cc3F)CC2)CC1` [Example 473, 4-Cyano-N-(4-{2-[4-(2,4,5-trifluorophenyl)piperazin-1-yl]ethyl}cyclohexyl)butanamide], for which the melting point stood at 153 °C.

In turn, `N#CCCCC(=O)N[C@H]1CC[C@H](CCN2CC=C(c3ccc(Cl)cc3)CC2)CC1` had a melting point of 198 °C.

The compound `CC(=O)CN1CCC(CCN2CCN(c3cc(C)ccc3C)CC2)CC1.Cl.Cl` came in with a melting point of 350 °C.

In turn, `CC(=O)CN1CCC(CCN2CCN(c3cc(F)c(F)c(F)c3F)CC2)CC1.Cl.Cl` returned a melting point of 235 °C.

`COCCC(=O)N[C@H]1CC[C@H](CCN2CCN(c3cccc(C(F)(F)F)c3)CC2)CC1` [Example 47, 3-Methoxy-N-(4-{2-[4-(3-trifluoromethylphenyl)piperazin-1-yl]ethyl}cyclohexyl)propanamide] yielded a melting point of 125 °C.

Take `CCCC(=O)CN1CCC(CCN2CCN(c3cccc4c3CCC4)CC2)CC1.Cl.Cl`: the melting point was 270 °C.

Compound `N#CCCCC(=O)N[C@H]1CC[C@H](CCN2CCN(c3cccc4cccnc34)CC2)CC1` [Example 262, 4-Cyano-N-{4-[2-(4-quinolin-8-ylpiperazin-1-yl)ethyl]cyclohexyl}butanamide] registered a melting point of 180 °C.

Consider `COCCCC(=O)N[C@H]1CC[C@H](CCN2CCN(c3ccc(Cl)cc3)CC2)CC1` [Example 698, N-(4-{2-[4-(4-Chlorophenyl)-piperazin-1-yl]ethyl}cyclohexyl)-4-methoxybutanamide], for which the melting point worked out at 204 °C.

In turn, `O=C(C[C@H]1CC[C@H](CCN2CCN(c3ccccc3F)CC2)CC1)N1CCCC1` [Example 302, 2-(4-{2-[4-(2-Fluorophenyl)-piperazin-1-yl]ethyl}cyclohexyl)-1-pyrrolidin-1-ylethanone] came in with a melting point of 92 to 93 °C.

In turn, `NC(=O)CCC(=O)N[C@H]1CC[C@H](CCN2CCN(c3ccc(F)c(Cl)c3F)CC2)CC1` [Example 602, N-(4-{2-[4-(3-Chloro-2,4-difluorophenyl)piperazin-1-yl]ethyl}cyclohexyl)succinamide] registered a melting point of 257 °C.

In the case of `N#CCC(=O)N[C@H]1CC[C@H](CCN2CCN(c3cc(C#N)cc(C(F)(F)F)c3)CC2)CC1` [Example 138, 2-Cyano-N-(4-{2-[4-(3-cyano-5-trifluoromethylphenyl)piperazin-1-yl]ethyl}cyclohexyl)acetamide], the melting point was 186 °C.

`CC(=O)CN1CCC(CCN2CCN(c3cccc(C(C)(F)F)c3)CC2)CC1.Cl.Cl`: the melting point was determined as 256 °C.

`N#CCC(=O)N[C@H]1CC[C@H](CCN2CCN(c3ccc(F)c(Cl)c3)CC2)CC1` [Example 594, N-(4-{2-[4-(3-Chloro-4-fluorophenyl)piperazin-1-yl]ethyl}cyclohexyl)-2-cyanoacetamide]: the melting point worked out at 176 °C.

The compound `COCC(=O)N[C@H]1CC[C@H](CCN2CCN(c3cc(F)cc(Cl)c3)CC2)CC1` [Example 742, N-(4-{2-[4-(3-Chloro-5-fluorophenyl)piperazin-1-yl]ethyl}cyclohexyl)-2-methoxyacetamide] came in with a melting point of 132 °C.

In turn, `Cc1ccc(N2CCN(CC[C@H]3CC[C@H](NC(=O)CC(F)(F)F)CC3)CC2)cc1Cl` [Example 492, N-(4-{2-[4-(3-Chloro-4-methylphenyl)piperazin-1-yl]ethyl}cyclohexyl)-3,3,3-trifluoropropanamide] displayed a melting point of 192 °C.

With `COc1ccc(OC)c(N2CCN(CCC3CCN(CC(C)=O)CC3)CC2)c1.Cl.Cl`, the melting point is 268 °C.

Compound `N#CCCCC(=O)N[C@H]1CC[C@H](CCN2CCN(c3cccc(Cl)c3)CC2)CC1` [Example 229, N-(4-{2-[4-(3-Chlorophenyl)-piperazin-1-yl]ethyl}cyclohexyl)-4-cyanobutanamide] gave a melting point of 171 to 173 °C.
